Assay results from patent US8871767B2, “2-arylimidazo[1,2-B]pyridazine, 2-phenylimidazo[1,2-A]pyridine, and 2-phenylimidazo[1,2-A]pyrazine derivatives” (Hengrui (USA) Ltd., priority 2010, dated 2014).
pIC50: −log10 of the molar value. Like-named read-outs stand apart in the source and are kept apart here.

Columns and labels:
[1] = tested on: Hedgehog pathway activation on 10T1/2/Smo#3 cells (C3H10T1/2 cells transfected with human Smoothened receptor); assay: Hedgehog pathway activation on 10T1/2/Smo#3 cells measured by ALP activity; assay type: cell-based; conditions: Mus musculus, C3H 10T1/2, 10T1/2/Smo#3 cells
Outline: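 Inhibition of alkaline phosphatase induction, read fluorometrically from 4-methylumbelliferyl phosphate conversion, gave IC50 values; CellTiter-Blue tracked viability in parallel. Cells were the human Smo-transfected 10T1/2/Smo#3 pool, stimulated by 10-20% hShh conditioned medium or the Smo agonist SAG (500 nM).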

[2] = tested on: Hedgehog pathway activation (GLi-luciferase reporter) in Shh Light II reporter cells; assay: Hedgehog pathway activation on Shh Light II reporter cells measured by luciferase activity; assay type: cell-based; conditions: Mus musculus, Shh Light II
Outline: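 Shh Light II reporter cells carrying a hedgehog-responsive GLi-luciferase reporter were stimulated either with 500 nM SAG, a direct Smoothened agonist, or with conditioned media containing human Sonic Hedgehog (hShh). Test compounds were evaluated for blocking this pathway activation, quantified by luciferase activity. Cell viability was monitored in parallel with the Celltiter-Blue® assay.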

[3] = measured by ALP activity, read-out: ALP (IC50, inhibition of Hedgehog pathway activation)
[4] = hShh activation, read-out: Shh (IC50, inhibition of Hedgehog pathway activation)
[5] = hShh activation, ALP activity, read-out: 10T1/2/Smo#3 ALP activity (hShh Activation)
[6] = SAG activation (500 nM SAG), read-out: Shh Light II luciferase activity (SAG activation)
[7] = hShh activation, read-out: Shh Light II luciferase activity (hShh activation)

CC1CCCCC1Oc1ccc2nc(-c3ccc(C(F)(F)F)c(NC(=O)C(C)(C)C)c3)cn2n1 (centres unmarked) [Example 307, N-(5-(6-(2-methylcyclohexyloxy)imidazo[1,2-b]pyridazin-2-yl)-2-(trifluoromethyl)phenyl)pivalamide]
pIC50 [1, 3]: 6.40
pIC50 [2, 4]: 6.45

Cc1ccc(-c2cn3nc(-c4cc(F)ccc4C(F)(F)F)ccc3n2)cc1NC(=O)C(C)(C)C [Example 281, N-(5-(6-(5-fluoro-2-(trifluoromethyl)phenyl)imidazo[1,2-b]pyridazin-2-yl)-2-methylphenyl)pivalamide]
pIC50 [1, 3]: 7.42
pIC50 [2, 4]: 7.14

Cc1ccc(-c2cn3nc(-c4ccc(C(=O)O)cc4C(F)(F)F)ccc3n2)cc1NC(=O)C(C)(C)C [Example 479, 4-(2-(4-methyl-3-pivalamidophenyl)imidazo[1,2-b]pyridazin-6-yl)-3-(trifluoromethyl)benzoic acid]
pIC50 [1, 5]: > 6.52
pIC50 [1, 3]: 7.07
pIC50 [2, 6]: > 6.52
pIC50 [2, 4]: 8.22
pIC50 [2, 7]: > 6.52

CC1CN(C(=N)N)CCN1c1ccc2nc(-c3ccc(C(F)(F)F)c(NC(=O)C(C)(C)C)c3)cn2n1 (centres unmarked) [compound 571]
pIC50 [1, 3]: 6.26
pIC50 [2, 4]: 6.89

CC1(C(=O)Nc2cc(-c3cn4nc(-c5cccnc5C(F)(F)F)ccc4n3)ccc2F)CC1 [Example 674, N-(2-fluoro-5-(6-(2-(trifluoromethyl)pyridin-3-yl)imidazo[1,2-b]pyridazin-2-yl)phenyl)-1-methylcyclopropanecarboxamide]
pIC50 [1, 3]: 6.85
pIC50 [2, 4]: 7.23

CCOC(=O)COc1cccc(-c2ccc3nc(-c4ccc(C)c(NC(=O)C(C)(C)C)c4)cn3n2)c1C(F)(F)F [Example 410, ethyl 2-(3-(2-(4-methyl-3-pivalamidophenyl)imidazo[1,2-b]pyridazin-6-yl)-2-(trifluoromethyl)phenoxy)acetate]
pIC50 [1, 5]: 5.52 to 6.52
pIC50 [1, 3]: 6.39
pIC50 [2, 6]: 5.52 to 6.52
pIC50 [2, 4]: 6.92
pIC50 [2, 7]: > 6.52

Cc1ccc(-c2cn3nc(-c4cccc(C=CC(=O)NO)c4)ccc3n2)cc1NC(=O)C(C)(C)C [compound 559]
pIC50 [1, 3]: 6.22
pIC50 [2, 4]: 6.49

Cc1ccc(-c2cn3nc(-c4ccc5nonc5c4)ccc3n2)cc1NC(=O)C(C)(C)C [Example 449, N-(5-(6-(benzo[c][1,2,5]oxadiazol-5-yl)imidazo[1,2-b]pyridazin-2-yl)-2-methylphenyl)pivalamide]
pIC50 [1, 3]: 6.55
pIC50 [2, 4]: 6.51

CC(C)(C)C(=O)Nc1cc(-c2cn3nc(OC4CCC4)ccc3n2)ccc1C(F)(F)F [Example 182, N-(5-(6-cyclobutoxyimidazo[1,2-b]pyridazin-2-yl)-2-(trifluoromethyl)phenyl)pivalamide]
pIC50 [1, 3]: 5.73
pIC50 [2, 4]: 5.76

CC(C)(C)C(=O)Nc1cc(-c2cn3nc(N4CCSCC4)ccc3n2)ccc1C(F)(F)F [Example 355, N-(5-(6-thiomorpholinoimidazo[1,2-b]pyridazin-2-yl)-2-(trifluoromethyl)phenyl)pivalamide]
pIC50 [1, 3]: 6.62
pIC50 [2, 4]: 6.85

Cc1c(-c2ccccc2)nc2ccc(N3CCN(Cc4ccc(F)cc4F)CC3)nn12 [Example 164, 6-(4-(2,4-difluorobenzyl)piperazin-1-yl)-3-methyl-2-phenylimidazo[1,2-b]pyridazine]
pIC50 [1, 3]: 6.26
pIC50 [2, 4]: 6.33

CC(C)(C)C(=O)Nc1cc(-c2cn3nc(-c4cccnc4C(F)(F)F)ccc3n2)c(F)cc1F [Example 652, N-(2,4-difluoro-5-(6-(2-(trifluoromethyl)pyridin-3-yl)imidazo[1,2-b]pyridazin-2-yl)phenyl)pivalamide]
pIC50 [1, 3]: 7.44
pIC50 [2, 4]: 7.47

CC(C)(C)C(=O)Nc1cc(-c2cn3nc(-c4cccnc4Cl)ccc3n2)ccc1C(F)(F)F [Example 334, N-(5-(6-(2-chloropyridin-3-yl)imidazo[1,2-b]pyridazin-2-yl)-2-(trifluoromethyl)phenyl)pivalamide]
pIC50 [1, 3]: 6.67
pIC50 [2, 4]: 6.56
